Assay [1] has as its system P. aeruginosa. The following applies: P. aeruginosa MMX 103 (ATCC 27853); cited from earlier work.
The subject of assay [2] is E. faecalis. Nature of the assay: Broth microdilution MIC (Example 5). It is filed as cell-based, Enterococcus faecalis. The settings on record: Enterococcus faecalis, VRE. The method, then: Test and Comparator Agents: The test agents were stored at room temperature until assayed. […] The stock solutions were allowed to stand for at least 1 hr prior to use to auto-sterilize.
TestMedia: Test media were prepared and stored in accordance with guidelines from CLSI (4, 6, 7).
Broth Microdilution MC Testing (Aerobic Bacteria and Yeast): The broth microdilution assay method employed for the susceptibility testing of aerobic bacteria (excluding N. gonorrhoeae which was evaluated by agar dilution) and yeast essentially followed the procedures described by CLSI (3, 4, 7, 8) and employed automated liquid handlers to conduct serial dilutions and liquid transfers. […] These would become the ‘mother plates’ from which ‘daughter’ or test plates would be prepared. The drugs (300 μL at 40× the desired top concentration in the test plates) were dispensed into the appropriate well in Column 1 of the mother plates. The Biomek 2000 was used to make serial two-fold dilutions through Column 11 in the “mother plate”. The wells of Column 12 contained no drug and ultimately served as the organism growth control wells.
The daughter plates were prepared using the Biomek FX which transferred 5 μL of drug solution from each well of a mother plate to the corresponding well of the correct daughter plate in a single step.
(§1) A standardized inoculum of each organism was prepared per CLSI methods (3, 7). Isolated colonies of each test isolate were picked from the primary plate and a suspension was prepared to equal a 0.5 McFarland turbidity standard. Standardized suspensions were then diluted […] (1:100 for yeast, 1:20 for bacteria). After dilution, the inoculum suspensions were then transferred to compartments of sterile reservoirs divided by length (Beckman Coulter), and the Biomek 2000 was used to inoculate all plates. Daughter plates were placed on the Biomek 2000 in reverse orientation so that plates were inoculated from low to high drug concentration.
The Biomek 2000 delivered 10 μL of standardized inoculum into each well of the appropriate daughter plate for an additional 1:20 dilution.
(§2) Plates were stacked 4 high, covered with a lid on the top plate, placed into plastic bags, and incubated at 35° C. for approximately 24-48 hr for all yeast isolates and 16-24 hr for aerobic bacteria. Plates were viewed from the bottom using a plate viewer. […] MIC endpoints for the test agents and control compounds were read per CLSI criteria (3, 7).

The subject of assay [3] is B. fragilis. Briefly: Agar dilution MIC, anaerobes (Example 5). The class given is cell-based. The settings on record: Bacteroides fragilis, ATCC25285.
The test system of assay [4] is C. albicans. Briefly: Broth microdilution MIC, yeast (Example 5). The settings on record: Candida albicans, Sensitive. It is filed as cell-based. The method, then:
(§3) Test and Comparator Agents: The test agents were stored at room temperature until assayed. All test agents were suspended and diluted in 100% dimethylsulfoxide (DMSO), and were ultimately tested at a final concentration of 0.06-64 μg/mL. The stock solutions were allowed to stand for at least 1 hr prior to use to auto-sterilize.
(§4) The susceptibility of yeast isolates was determined by broth microdilution in RPMI medium (HyClone Laboratories, Logan, UT; Lot No. AZC184041B) buffered with 0.165 M MOPS (Calbiochem, Billerica, MA; Lot No. 2694962). The pH of the medium was adjusted to 7.0 with 1 N NaOH, sterile filtered using a 0.2 μm PES filter, and stored at 4° C. until used.
(§5) Broth Microdilution MC Testing (Aerobic Bacteria and Yeast): The broth microdilution assay method employed for the susceptibility testing of aerobic bacteria (excluding N. gonorrhoeae which was evaluated by agar dilution) and yeast essentially followed the procedures described by CLSI (3, 4, 7, 8) and employed automated liquid handlers to conduct serial dilutions and liquid transfers. Automated liquid handlers included the Multidrop 384 (Labsystems, Helsinki, Finland) and Biomek 2000 (Beckman Coulter, Fullerton CA). The wells in columns 2-12 in standard 96-well microdilution plates (Costar 3795) were filled with 150 μl of the correct diluent. These would become the ‘mother plates’ from which ‘daughter’ or test plates would be prepared. The drugs (300 μL at 40× the desired top concentration in the test plates) were dispensed into the appropriate well in Column 1 of the mother plates. The Biomek 2000 was used to make serial two-fold dilutions through Column 11 in the “mother plate”. The wells of Column 12 contained no drug and ultimately served as the organism growth control wells.
(§6) The daughter plates were loaded with 185 μL per well of the appropriate test media using the Multidrop 384. The daughter plates were prepared using the Biomek FX which transferred 5 μL of drug solution from each well of a mother plate to the corresponding well of the correct daughter plate in a single step.
as §1
(§7) The Biomek 2000 delivered 10 μL of standardized inoculum into each well of the appropriate daughter plate for an additional 1:20 dilution. […] The final concentration of DMSO (if used as a solvent) in the test well was 2.5%.
as §2
(In general: In broth dilution the organism is exposed to a series of concentrations in liquid medium.)

Assay [5] concerns C. glabrata. Nature of the assay: Broth microdilution MIC, yeast (Example 5). It is filed as cell-based. The following applies: Nakaseomyces glabratus, FLUR. The method, then: as §3, §4, §5, §6, §1, §7, §2
Assay [6] relates to C. parapsilosis. Briefly: Broth microdilution MIC, yeast (Example 5). The class given is cell-based. The following applies: Lodderomyces parapsilosis. The method, then: as §3, §4, §5, §6, §1, §7, §2
The test system of assay [7] is C. tropicalis. Briefly: Broth microdilution MIC, yeast (Example 5). It is filed as cell-based. The settings on record: Candida tropicalis, FLUR. Here is the method: as §3, §4, §5, §6, §1, §7, §2
Assay [8] relates to enterococci. Nature of the assay: MIC summary, enterococci (Example 5). The class given is cell-based, E. faecalis and E. faecium. The following applies: Enterococcus, VRE (Table 5), read-out: MIC values across isolates. The method, then: as §3
TestMedia: Test media were prepared and stored in accordance with guidelines from CLSI (4, 6, 7). […] Neisseria gonorrhoeae were evaluated by agar dilution using agar consisting of GC medium base (BD; Lot No. 4274618) supplemented with 1% IsoVitaleX (BD; Lot No. 5246843).
Broth Microdilution MC Testing (Aerobic Bacteria and Yeast): The broth microdilution assay method employed for the susceptibility testing of aerobic bacteria (excluding N. gonorrhoeae which was evaluated by agar dilution) and yeast essentially followed the procedures described by CLSI (3, 4, 7, 8) and employed automated liquid handlers to conduct serial dilutions and liquid transfers. […]
Plates were stacked 4 high, covered with a lid on the top plate, placed into plastic bags, and incubated at 35° C. for approximately 24-48 hr for all yeast isolates and 16-24 hr for aerobic bacteria. […] MIC endpoints for the test agents and control compounds were read per CLSI criteria (3, 7).

Where [9] appears, read: 24 h, C. parapsilosis MMX 7370, FLUR.
Where [10] appears, read: 24 h, C. parapsilosis MMX 7555, FLUR.
The mark [11] stands for this setting: 48 h, C. parapsilosis MMX 7370, FLUR.
Setting [12] is: 48 h, C. parapsilosis MMX 7555, FLUR.
[13] abbreviates: ATCC22019, 24 h, C. parapsilosis MMX 2323 (ATCC 22019), QC, 24 hr.
[14] abbreviates: ATCC22019, 48 h, C. parapsilosis MMX 2323 (ATCC 22019), QC, 48 hr.

Consider 4 compounds from patent publication US20240285571A1, “METHODS OF TREATING BONE INFECTIONS” (MICROBION CORPORATION, priority 2020, published 2024).

Consider `CC(C)(O/N=C(\C(=O)N[C@@H]1C(=O)N2C(C(=O)[O-])=C(C[n+]3ccccc3)CS[C@H]12)c1csc(N)n1)C(=O)O` [Ceftazidime], for which the “CLSI QC range of MIC” value in assay [1] is on record as “(1-4) μg/mL”.
The MIC is the lowest concentration that inhibits growth of the organism. Regarding `OCC(S)CS.[Bi]` (stereo not drawn) [MB-2B, bismuth-2,3-dimercaptopropanol], the minimal inhibitory concentration (MIC) in assay [2] (E. faecalis MMX 8960) was determined as 2 µg/mL; in assay [2] (E. faecalis MMX 8961), 2 µg/mL; in assay [2] (E. faecalis MMX 8962) it was 2 µg/mL; in assay [3], 8 µg/mL; in assay [4] (24 h, C. albicans MMX 7039), 2 µg/mL; in assay [4] (24 h, C. albicans MMX 7055), 1 µg/mL. Besides, the MIC in assay [4] (48 h, C. albicans MMX 7039) stood at 2 µg/mL; in assay [4] (48 h, C. albicans MMX 7055), 4 µg/mL; in assay [5] (24 h, C. glabrata MMX 7086), 0.5 µg/mL; in assay [5] (24 h, C. glabrata MMX 7318) it was 0.25 µg/mL; in assay [5] (48 h, C. glabrata MMX 7086), 1 µg/mL; in assay [5] (48 h, C. glabrata MMX 7318) it was 1 µg/mL. The MIC in assay [6] (setting [9]) amounted to 0.5 µg/mL; in assay [6] (setting [10]), 0.25 µg/mL; in assay [6] (setting [11]) it was 0.5 µg/mL; in assay [6] (setting [12]), 1 µg/mL; in assay [6] (setting [13]), 0.5 µg/mL; in assay [6] (setting [14]), 1 µg/mL. In addition, the MIC in assay [7] (24 h, C. tropicalis MMX 7247) came to 2 µg/mL; in assay [7] (24 h, C. tropicalis MMX 7248), 4 µg/mL; in assay [7] (24 h, C. tropicalis MMX 7360), 1 µg/mL; in assay [7] (48 h, C. tropicalis MMX 7247), 4 µg/mL; in assay [7] (48 h, C. tropicalis MMX 7248), 4 µg/mL; in assay [7] (48 h, C. tropicalis MMX 7360) it was 2 µg/mL. Also, the MIC in assay [8] was 2 to 4 µg/mL.
As for `CC(S)C(C)S.[Bi]` (stereo not drawn) [MB-6, bismuth-2,3-butanedithiol], the MIC was determined as 0.5 µg/mL in assay [2] (E. faecalis MMX 8960); 0.25 µg/mL in assay [2] (E. faecalis MMX 8961); 0.25 µg/mL in assay [2] (E. faecalis MMX 8962); 1 µg/mL in assay [3]; 2 µg/mL in assay [4] (24 h, C. albicans MMX 7055); 2 µg/mL in assay [4] (48 h, C. albicans MMX 7039). Besides, the MIC in assay [4] (48 h, C. albicans MMX 7055) was 2 µg/mL; in assay [5] (24 h, C. glabrata MMX 7086) it was 0.5 µg/mL; in assay [5] (24 h, C. glabrata MMX 7318) it was 0.25 µg/mL; in assay [5] (48 h, C. glabrata MMX 7086), 1 µg/mL; in assay [5] (48 h, C. glabrata MMX 7318) it was 0.5 µg/mL; in assay [6] (setting [9]), 0.25 µg/mL. Besides, the MIC in assay [6] (setting [10]) worked out at 0.25 µg/mL; in assay [6] (setting [11]), 0.5 µg/mL; in assay [6] (setting [12]) it was 0.5 µg/mL; in assay [6] (setting [13]), 0.5 µg/mL; in assay [6] (setting [14]) it was 1 µg/mL; in assay [7] (24 h, C. tropicalis MMX 7247), 4 µg/mL. For the same compound, the MIC in assay [7] (24 h, C. tropicalis MMX 7248) was 4 µg/mL; in assay [7] (24 h, C. tropicalis MMX 7360), 2 µg/mL; in assay [7] (48 h, C. tropicalis MMX 7247), 4 µg/mL; in assay [7] (48 h, C. tropicalis MMX 7248), 8 µg/mL; in assay [7] (48 h, C. tropicalis MMX 7360), 2 µg/mL; in assay [8], 0.25 to 1 µg/mL.
With `C[C@@H](O)[C@H]1C(=O)N2C(C(=O)O)=C(S[C@@H]3CN[C@H](C(=O)N(C)C)C3)[C@H](C)[C@H]12` [Meropenem], in assay [1], the “CLSI QC range of MIC” value was “(0.25-1) μg/mL”.
